Earlier results as cited in article PMC12080252, “Daphnia magna as an Alternative Model for (Simultaneous) Bioaccumulation and Chronic Toxicity Assessment—Controlled Exposure Study Indicates High Hazard of Heterocyclic PAHs” (Environmental Science & Technology, 2025).
Where “and” joins values, the source holds several entries; their conditions need not be identical. Equal entries are not always repeated. Where two headings read alike, the source gives them in different places.

What was measured:
[1] = Table S10; ref SI ref 23 (UK Environment Agency Report); cited from earlier work
[2] = test system: fish; conditions: cited from earlier work
[3] = test system: D. magna or D. pulex; conditions: cited from earlier work; for accumulation in water fleas: compared with fish; for BCF (M of several values): ref SI refs 4, 5
[4] = test system: aryl hydrocarbon receptor (AhR); conditions: cited from earlier work
[5] = test system: D. magna; conditions: Table S1; footnote not given; cited from earlier work
[6] = D. magna or D. pulex, ref SI refs 8, 10

| Molecule | log KOW [1] | half-life ([2]; fish, Table S10, ref SI ref 23) | log BCFL5% ([2]; fish, Table S10, ref SI ref 23) | log k2 ([2]; fish, Table S10, ref SI ref 23) | other results |
| --- | --- | --- | --- | --- | --- |
| Clc1cc2c(oc3c(Cl)c(Cl)c(Cl)c(Cl)c32)c(Cl)c1Cl [1,2,3,4,6,7,8-Heptachloro dibenzofuran] | 7.40 | 127.97 h | 3.16 | -2.27 h-1 | – |
| Clc1cc2c(c(Cl)c1Cl)Oc1cc(Cl)c(Cl)c(Cl)c1O2 [1,2,3,6,7,8-Hexachloro dibenzo-p-dioxin] | 7.30 | 332.71 h | 3.64 | -2.68 h-1 | – |
| Clc1cc2c(oc3cc(Cl)c(Cl)c(Cl)c32)c(Cl)c1Cl [1,2,3,6,7,8-Hexachloro dibenzofuran] | 7.30 | 213.28 h | 3.65 | -2.49 h-1 | – |
| Clc1cc2c(cc1Cl)Oc1c(cc(Cl)c(Cl)c1Cl)O2 [1,2,3,7,8-Pentachlorodibenzo-p-dioxin] | 6.64 | 554.52 h | 3.97 | -2.90 h-1 | – |
| Brc1cc(Br)c(-c2c(Br)cc(Br)cc2Br)c(Br)c1 [2,2',4,4',6,6'-hexa bromobiphenyl] | 7.20 | 2343.03 h | 4.55 | -3.53 h-1 | – |
| Brc1ccc(Br)c(-c2cc(Br)ccc2Br)c1 [2,2',5,5'-tetra bromobiphenyl] | 6.50 | 1697.50 h | 4.86 | -3.39 h-1 | – |
| Clc1cc2c(oc3c(Cl)c(Cl)c(Cl)cc32)c(Cl)c1Cl [2,3,4,6,7,8-Hexachloro dibenzofuran] | 7.30 | 166.36 h | 3.69 | -2.38 h-1 | – |
| Clc1cc2oc3c(Cl)c(Cl)c(Cl)cc3c2cc1Cl [2,3,4,7,8-Pentachloro dibenzofuran] | 6.64 | – | – | – | – |
| Clc1cc2oc3cc(Cl)c(Cl)cc3c2cc1Cl [2,3,7,8-Tetrachlorodibenzo furan] | 6.53 | 57.36 h | 2.89 | -1.92 h-1 | – |
| Brc1cc(Br)c(-c2ccccc2)c(Br)c1 [2,4,6-tri bromobiphenyl] | 6.03 | – | – | – | – |
| Cc1c2ccccc2cc2ccccc12 [9-methyl-anthracene] | – | – | – | – | half-life [3, 6]: 4.8 h; log k2 [3, 6]: -0.84 h-1 |
| c1ccc2c(c1)ccc1c3ccccc3sc21 [Benzo[b]naphtho[2,1-d]thiophene] | – | – | – | – | accumulation in water fleas [3]: accumulate even more in water fleas |
| c1ccc2c(c1)Cc1c-2ccc2ccccc12 [Benzofluorene, benzo[a]fluorene] | – | – | – | – | body burden ([3]; D. magna): 17600 µg/kg; log BAF*L5% ([3]; D. magna): 4.09 L kg^-1 lipid |
| CC(C)OC(=O)C(C(=O)OC(C)C)=C1SCCS1 [Bis(1-methylethyl)ester, 1,3-dithiolan-2-ylidene propanedioic acid] | 2.88 | 3.65 h and 2.17 h | 1.45 and 1.59 and 1.65 | -0.72 h-1 and -0.49 h-1 | – |
| CCCCCCCCCCC(C)c1ccc(S(=O)(=O)O)cc1 (stereo not shown) [C-12-2-LAS] | 4.71 | 23.77 h | 2.16 | -1.54 h-1 | – |
| CCCCCCCC(CCCC)c1ccc(S(=O)(=O)O)cc1 (stereo not shown) [C-12-5-LAS] | 4.71 | 13.86 h | 1.00 | -1.30 h-1 | – |
| CC(C)C(C(=O)OC(C#N)c1cccc(Oc2ccccc2)c1)c1ccc(Cl)cc1 (stereo not drawn) [Cyano(3-phenoxyphenyl)methyl ester, 4-chloro-alpha-(1-methylethyl) benzeneacetic acid] | 6.20 | 75.62 h | 2.64 | -2.04 h-1 | – |
| ClC1C(Cl)C(Cl)C(Cl)C(Cl)C1Cl (stereo not shown) [Cyclohexane, 1,2,3,4,5,6-hexachloro-, (1a,2a,3B,4a,5a,6B)-] | 3.72 | 12.60 h | 2.81 | -1.26 h-1 | – |
| COc1ccc(C(c2ccc(OC)cc2)C(Cl)(Cl)Cl)cc1 [Methoxychlor] | – | – | – | – | accumulation in fish versus invertebrates (Figure 3B) ([2]; in vivo): accumulating in invertebrates but not in fish |
| COP(=S)(OC)Oc1ccc(Cl)cc1C#N [Methyl isocyanothion] | 3.58 | 14.10 h | 2.09 | -1.31 h-1 | – |
| CC(C)Oc1cccc(NC(=O)c2ccccc2C(F)(F)F)c1 [N-[3-(1-Methylethoxy)phenyl]-2-(trifluoromethyl) benzamide] | 3.70 | 5.78 h | 1.32 | -0.92 h-1 | – |
| COP(=S)(OC)Oc1ccc(SC)c(C)c1 [O,O-Dimethyl O-[3-methyl-4-(methylthio)phenyl]ester phosphorothioic acid] | 4.17 | – | – | – | – |
| COP(=S)(OC)Oc1c(Cl)cc(C)cc1Cl [O-(2,6-Dichloro-4-methylphenyl) O,O-dimethyl ester, Phosphorothioic acid] | 4.56 | 17.33 h | 2.36 | -1.40 h-1 | – |

| Molecule | log KOW [1] | half-life ([2]; fish, Table S10, ref SI ref 23) | log BCFL5% ([2]; fish, Table S10, ref SI ref 23) | log k2 ([2]; fish, Table S10, ref SI ref 23) | other results |
| --- | --- | --- | --- | --- | --- |
| CCCCCCCCCCCCCOCCOCCOCCOCCOCCOCCOCCOCCO [Octaethylene glycol monotridecyl ether] | – | 1.65 h | 1.69 | -0.38 h-1 | – |
| c1ccc2nc3ccccc3cc2c1 [acridine] | – | – | – | – | AhR agonism [4]: weak to moderate aryl hydrocarbon receptor (AhR) agonists; half-life [3, 6]: 0.32 h; log k2 [3, 6]: 0.33 h-1 |
| c1ccc2cc3ccccc3cc2c1 [anthracene] | – | – | – | – | AhR-mediated toxicity [4]: do not trigger AhR-mediated toxicity; BCF (M of several values) ([3]; D. magna or D. pulex): 944; half-life [3, 6]: 1.18 h; log k2 [3, 6]: -0.23 h-1 |
| c1ccc2nc3ccc4ccccc4c3cc2c1 [benz(a)acridine] | – | – | – | – | half-life [3, 6]: 1.2 h; log k2 [3, 6]: -0.24 h-1; lowest PNEC* [5]: 0.016 µg/L |
| c1ccc2cc3c(ccc4ccccc43)cc2c1 [benz[a]anthracene] | 5.76 | – | – | – | – |
| c1ccc2cc3c(cc2c1)sc1ccccc13 [benzo[b]naphtho[2,3-d]thiophene] | – | – | – | – | bioaccumulation in fish [2]: high bioaccumulation in fish |
| CC1(C)[C@H](C(=O)OCc2cccc(Oc3ccccc3)c2)[C@@H]1C=C(Cl)Cl [cis-Permethrin] | 7.43 | 36.97 h | 2.45 | -1.73 h-1 | – |
| c1ccc2c(c1)Oc1ccccc1O2 [dibenzo[1,4]dioxane] | – | – | – | – | bioaccumulation in fish [2]: high bioaccumulation in fish |
| c1ccc2c(c1)ccc1c3ccc4ccccc4c3[nH]c21 [dibenzocarbazole, 13H-dibenzo[a,i]carbazole] | – | – | – | – | half-life [3, 6]: 9 h; log k2 [3, 6]: -1.11 h-1; accumulation in water fleas [3]: accumulate even more in water fleas; bioaccumulation in fish [2]: high bioaccumulation in fish |
| c1ccc2c(c1)oc1ccccc12 [dibenzofuran] | – | – | – | – | AhR agonism [4]: weak to moderate aryl hydrocarbon receptor (AhR) agonists |
| c1ccc2c(c1)sc1ccccc12 [dibenzothiophene] | – | – | – | – | bioaccumulation in fish [2]: high bioaccumulation in fish; lowest PNEC* [5]: 0.24 µg/L |
| c1ccc2c(c1)Cc1ccccc1-2 [fluorene] | – | – | – | – | AhR-mediated toxicity [4]: do not trigger AhR-mediated toxicity |
| c1ccc2cnccc2c1 [isoquinoline] | – | – | – | – | half-life [3, 6]: 0.04 h; log k2 [3, 6]: 1.26 h-1 |
| c1ccc2ccccc2c1 [naphthalene] | – | – | – | – | AhR-mediated toxicity [4]: do not trigger AhR-mediated toxicity; half-life [3, 6]: 0.42 h; log k2 ([3]; in vivo): 0.22 h-1 |
| c1cc2cccc3c4cccc5cccc(c(c1)c23)c54 [perylene] | – | – | – | – | half-life [3, 6]: 5.02 h; log k2 [3, 6]: -0.86 h-1 |
| c1ccc2c(c1)ccc1ccccc12 [phenanthrene] | – | – | – | – | AhR-mediated toxicity [4]: do not trigger AhR-mediated toxicity; BCF (M of several values) ([3]; D. magna or D. pulex): 325; log k2 [3, 6]: -0.27 h-1; half-life ([3]; in vivo): 1.29 h; accumulation in fish versus invertebrates (Figure 3B) ([2]; in vivo): accumulated in fish but not in Daphnia and H. azteca |
| ClC(Cl)=C(c1ccc(Cl)cc1)c1ccc(Cl)cc1 [pp’DDE] | – | – | – | – | BCF (M of several values) ([2]; fish, ref SI refs 4, 7, 12): 54250 |
| c1ccc2ncccc2c1 [quinoline] | – | – | – | – | BCF (M of several values) ([2]; in vivo): 2.5; log BCFL5% ([2]; in vivo): 1.92 |
| c1ccc2c(c1)Sc1ccccc1S2 [thianthrene] | – | – | – | – | bioaccumulation in fish [2]: high bioaccumulation in fish |
| c1ccc2c(c1)Cc1ccccc1S2 [thioxanthene] | – | – | – | – | lowest PNEC* [5]: 0.32 µg/L |
| c1ccc2c(c1)Cc1ccccc1O2 [xanthene] | – | – | – | – | AhR agonism [4]: weak to moderate aryl hydrocarbon receptor (AhR) agonists; bioaccumulation in fish ([2]; in vivo): high bioaccumulation in fish |
| Phenol, 4-nonyl-, branched, | 5.92 | 9.90 h | 2.58 | -1.15 h-1 | – |
